Test results from patent US20050154037A1, “Methods of using zonisamide as an adjunctive therapy for partial seizures” (Eisai Co., Ltd., priority 2004, published 2005).

Tests used:
rat hippocampal slices = settings: 10-30 μg/mL; cited from earlier work
[1] = test system: cultured mouse spinal cord neurons; settings: 10-30 μg/mL, cited from earlier work
sodium channels = settings: in vitro; cited from earlier work
[2] = test system: GABA/benzodiazepine receptor ionophore complex; settings: cited from earlier work
hepatic enzyme = settings: cited from earlier work
[3] = test system: dopaminergic and serotonergic neurotransmission; settings: in vivo microdialysis; cited from earlier work
[4] = test system: voltage-dependent, transient inward currents (T-type Ca^2+ currents); settings: in vitro; cited from earlier work
[5] = NMS case reports: onset of symptoms after cessation of zonisamide therapy; format: in vivo, patients; settings: person with Parkinson's Disease
From the text: Cases ZON1000813 and ZON1000929 are adult cases from Japan. In both cases the patients carried a diagnosis of Parkinson's disease (PD) and were enrolled in a double blind, placebo controlled […] study of zonisamide as a potential treatment for PD (Protocol AD81 ON-202-1). In both cases the development of NMS appeared after the withdrawal of zonisamide (from 2 days to 14 days, respectively). In the former case, the study blind was broken, and the patient was documented to be on study medication (zonisamide), while in the second case, the blind was not broken. Case ZON1000926 is a spontaneous pediatric case from the US. In all of these cases there were weak or no confounding factors present.
A person carried a diagnosis of Parkinson's Disease (PD). The patient was enrolled in a double-blind, placebo controlled Phase II study designed to assess the potential utility of zonisamide in the treatment of PD. The patient's symptoms of NMS appeared 2 days after cessation of zonisamide therapy. Patients with PD are known to be at a rare, but increased risk for NMS. But NMS can occur spontaneously. See Ueda, et al., Neurology, Vol. 52, pp. 777-781, 1999.
A person carried a diagnosis of Parkinson's Disease (PD). The patient was enrolled in a double-blind, placebo controlled Phase II study designed to assess the potential utility of zonisamide in the treatment of PD. […]

carbonic anhydrase = settings: relative to acetazolamide; called weak; cited from earlier work
[6] = design: species or system patients; settings: human, in vivo
From the text: The pharmacovigilance data that were collected, reviewed and analyzed provided the following information in respect of the incidence of NMS. To date, a total of 3 cases (two adult and one pediatric) fulfill the criteria of potential neuroleptic malignant syndrome. These cases were reviewed in detail for evaluation of possible safety signals. They were all deemed serious, and in all cases, the patients recovered with appropriate treatment.
Cases ZON1000813 and ZON1000929 are adult cases from Japan. In both cases the patients carried a diagnosis of Parkinson's disease (PD) and were enrolled in a double blind, placebo controlled […] study of zonisamide as a potential treatment for PD (Protocol AD81 ON-202-1). […]
Estimates of exposure, based upon retail and mail order prescriptions, indicate that the number of unique patients taking zonisamide capsules in the U.S. is about 37,276 (total prescriptions per year/average number of prescriptions per patient per year less a calculated percentage decrease based on estimated annual dropouts) in the time between approval in 2000 and December 2002. […] Similarly, the incidences of NMS estimated herein are unlikely to be higher than calculated. Based on the exposure data and number of NMS cases, the incidence of NMS in the U.S. and Japan is calculated to be about 1:37,276 unique patients and 1:592,588 unique patients, respectively.

## NS(=O)(=O)Cc1noc2ccccc12 [zonisamide, 1,2-benzisoxazole-3-methanesulfonamide]
Rat hippocampal slices
  neuronal or glial uptake of [3H]-GABA: without affecting
[1]
  synaptically-driven electrical activity: suppresses
[1]; cultured mouse spinal cord neurons
  postsynaptic GABA or glutamate responses: without affecting
Sodium channels
  effect on sodium channels: blocks sodium channels
[2]
  changes in chloride flux: does not produce changes in chloride flux
[2]; in an allosteric fashion
  binding to the GABA/benzodiazepine receptor ionophore complex: binds
Hepatic enzyme
  hepatic enzyme induction: not known to be a hepatic enzyme inducer
[3]
  dopaminergic and serotonergic neurotransmission: facilitates
[4]
  effect on voltage-dependent, transient inward currents (T-type Ca2+ currents): reduces
[5]; Phase II study (Example 1)
  appearance of NMS symptoms after cessation of zonisamide therapy: 2 days
[5]; Phase II study, blind not broken (Example 2)
  appearance of NMS symptoms after cessation of study medication: 14 days
Carbonic anhydrase
  carbonic anhydrase inhibition compared to acetazolamide: 1/50
[6]
  cases that fulfill the criteria of potential neuroleptic malignant syndrome: 3 cases
  incidence of NMS: about 1:37,276 unique patients
